Results from patent US12552772B2, “2-pyrazole anilines and related analogs for inhibiting YAP/TAZ-TEAD” (KATHOLIEKE UNIVERSITEIT LEUVEN, priority 2021, dated 2026).

Test system: YAP/TAZ-TEAD transcription
Assay: Reporter gene assay for measuring the inhibition of YAP/TAZ-TEAD transcription (TEAD-responsive element luciferase reporter in Hek293T cells)
Format: cell-based
Settings: Homo sapiens, HEK-293T, 24 hours incubation
Method: Hek293T cells are cultured in DMEM supplemented with 10% fetal bovine serum, Sodium pyruvate, Sodium bicarbonate, L-glutamine. The cells are harvested and transiently transfected with TEAD-responsive element luciferase reporter. Transfected cells are plated in 384-wells plate containing pre-diluted compounds. After 24 hours incubation at 37° C./5% CO2, assay plates were cooled down to RT and levelled to an equal volume per well, prior to the addition of 25 uL luciferase substrate SteadyLite (Perkin Elmer)/well. The plate was shaken for 10 min at 600 rpm, centrifuged for 1 min at 500 rpm and measured with an Envision reader (PerkinElmer). The amount of relative light units produced by the TEAD reporter is used to calculated percent of inhibition.
The percent of reporter inhibition was calculated in the presence of a positive control inhibitor (100% inhibition) versus a condition with the presence of the vehicle basal activity of the reporter (0% inhibition). The ability of a test compound to inhibit this activity was determined as: Percentage inhibition=[1−((RLU determined in the presence of vehicle−RLU determined for sample with test compound present) divided by (RLU determined in the presence of vehicle−RLU determined for sample with positive control inhibitor))]*100
The activities of the example compounds tested are depicted in the table below. The activity ranges A, B and C refer to EC50 values in the reporter gene assay as described as follows: “A”: EC50<1 μM; “B”: 1 μM s EC50≤20 μM and “C”: EC50>20 μM, NT=not tested.

Structure (SMILES)	EC50
O=C1CC(Nc2cc(-c3ccccc3)cc(-c3ccn(Cc4cccnc4)n3)c2)CCN1 (centres unmarked) [compound 073, 4-((5-(1-(pyridin-3-ylmethyl)-1H-pyrazol-3-yl)-[1,1′-biphenyl]-3-yl)amino)piperidin-2-one]	1 to 20 µM
CNC(=O)CNc1ccc(-c2ccccc2)cc1-c1ccn(Cc2cccnc2)n1 [compound 074, N-methyl-2-((3-(1-(pyridin-3-ylmethyl)-1H-pyrazol-3-yl)-[1,1′-biphenyl]-4-yl)amino)acetamide]	1 to 20 µM
CNC(=O)CNc1cc(-c2ccccc2)cc(-c2ccn(Cc3cccnc3)n2)c1 [compound 076, N-methyl-2-((5-(1-(pyridin-3-ylmethyl)-1H-pyrazol-3-yl)-[1,1′-biphenyl]-3-yl)amino)acetamide]	1 to 20 µM
CCC(=O)NCCNc1ccc(-c2ccccc2)cc1-c1ccn(Cc2cccnc2)n1 [compound 077]	< 1 µM
O=C(O)CNc1cc(-c2ccccc2)cc(-c2ccn(Cc3cccnc3)n2)c1 [compound 078, (5-(1-(pyridin-3-ylmethyl)-1H-pyrazol-3-yl)-[1,1′-biphenyl]-3-yl)glycine]	> 20 µM
CNS(=O)(=O)CCC(=O)Nc1ccc(-c2ccccc2)cc1-c1ccn(Cc2cccnc2)n1 [compound 079, 3-(N-methylsulfamoyl)-N-(3-(1-(pyridin-3-ylmethyl)-1H-pyrazol-3-yl)-[1,1′-biphenyl]-4-yl)propanamide]	1 to 20 µM
C=CC(=O)Nc1ccc(-c2ccccc2)cc1-c1ccn(Cc2cccnc2)n1 [compound 080, N-(3-(1-(pyridin-3-ylmethyl)-1H-pyrazol-3-yl)-[1,1′-biphenyl]-4-yl)acrylamide]	1 to 20 µM
N#CCC(=O)Nc1ccc(-c2ccccc2)cc1-c1ccn(Cc2cccnc2)n1 [compound 081, 2-cyano-N-(3-(1-(pyridin-3-ylmethyl)-1H-pyrazol-3-yl)-[1,1′-biphenyl]-4-yl)acetamide]	1 to 20 µM
CNS(=O)(=O)CC(=O)Nc1ccc(-c2ccccc2)cc1-c1ccn(Cc2cccnc2)n1 [compound 082, 2-(N-methylsulfamoyl)-N-(3-(1-(pyridin-3-ylmethyl)-1H-pyrazol-3-yl)-[1,1′-biphenyl]-4-yl)acetamide]	1 to 20 µM
N#CCCNc1ccc(-c2ccccc2)cc1-c1ccn(Cc2cccnc2)n1 [compound 084, 3-((3-(1-(pyridin-3-ylmethyl)-1H-pyrazol-3-yl)-[1,1′-biphenyl]-4-yl)amino)propanenitrile]	1 to 20 µM
N#CCNc1ccc(-c2ccccc2)cc1-c1ccn(Cc2cccnc2)n1 [compound 085, 2-((3-(1-(pyridin-3-ylmethyl)-1H-pyrazol-3-yl)-[1,1′-biphenyl]-4-yl)amino)acetonitrile]	< 1 µM
CNS(=O)(=O)CCNc1ccc(-c2cccc(C(F)(F)F)c2)cc1-c1ccn(Cc2cccnc2)n1 [compound 089]	< 1 µM
CNS(=O)(=O)CCNc1ccc(-c2cccc(OC)c2)cc1-c1ccn(Cc2cccnc2)n1 [compound 090, 2-((3′-methoxy-3-(1-(pyridin-3-ylmethyl)-1H-pyrazol-3-yl)-[1,1′-biphenyl]-4-yl)amino)-N-methylethane-1-sulfonamide]	< 1 µM
CNS(=O)(=O)CCNc1ccc(-c2cccc(Cl)c2)cc1-c1ccn(Cc2cccnc2)n1 [compound 091, 2-((3′-chloro-3-(1-(pyridin-3-ylmethyl)-1H-pyrazol-3-yl)-[1,1′-biphenyl]-4-yl)amino)-N-methylethane-1-sulfonamide]	< 1 µM
CNS(=O)(=O)CCNc1ccc(-c2cc(F)ccc2F)cc1-c1ccn(Cc2cccnc2)n1 [compound 092, 2-((2′,5′-difluoro-3-(1-(pyridin-3-ylmethyl)-1H-pyrazol-3-yl)-[1,1′-biphenyl]-4-yl)amino)-N-methylethane-1-sulfonamide]	< 1 µM
CNS(=O)(=O)CCNc1ccc(-c2cccnc2)cc1-c1ccn(Cc2cccnc2)n1 [compound 094, N-methyl-2-((4-(pyridin-3-yl)-2-(1-(pyridin-3-ylmethyl)-1H-pyrazol-3-yl)phenyl)amino)ethane-1-sulfonamide]	1 to 20 µM
CNS(=O)(=O)CCNc1ccc(C2CCCCC2)cc1-c1ccn(Cc2cccnc2)n1 [compound 095, 2-((4-cyclohexyl-2-(1-(pyridin-3-ylmethyl)-1H-pyrazol-3-yl)phenyl)amino)-N-methylethane-1-sulfonamide]	< 1 µM
CNS(=O)(=O)CCNc1ccc(-c2ccn(C)n2)cc1-c1ccn(Cc2cccnc2)n1 [compound 096, N-methyl-2-((4-(1-methyl-1H-pyrazol-3-yl)-2-(1-(pyridin-3-ylmethyl)-1H-pyrazol-3-yl)phenyl)amino)ethane-1-sulfonamide]	1 to 20 µM
CNS(=O)(=O)CCNc1ccc(-c2ccc(C(F)F)cc2)cc1-c1ccn(Cc2cccnc2)n1 [compound 097, 2-((4′-(difluoromethyl)-3-(1-(pyridin-3-ylmethyl)-1H-pyrazol-3-yl)-[1,1′-biphenyl]-4-yl)amino)-N-methylethane-1-sulfonamide]	< 1 µM
CNS(=O)(=O)CCNc1ccc(-c2ccc(OC(F)(F)F)cc2)cc1-c1ccn(Cc2cccnc2)n1 [compound 098, N-methyl-2-((3-(1-(pyridin-3-ylmethyl)-1H-pyrazol-3-yl)-4′-(trifluoromethoxy)-[1,1′-biphenyl]-4-yl)amino)ethane-1-sulfonamide]	< 1 µM
CNS(=O)(=O)CCNc1ccc(-c2ccc(OC(F)F)cc2)cc1-c1ccn(Cc2cccnc2)n1 [compound 099, 2-((4′-(difluoromethoxy)-3-(1-(pyridin-3-ylmethyl)-1H-pyrazol-3-yl)-[1,1′-biphenyl]-4-yl)amino)-N-methylethane-1-sulfonamide]	< 1 µM
CNS(=O)(=O)CCNc1ccc(-c2ccc(S(F)(F)(F)(F)F)cc2)cc1-c1ccn(Cc2cccnc2)n1 [compound 100, 2-((4′-(2,2-difluoro-2-methyl-2l6-trifluoran-2-yl)-3-(1-(pyridin-3-ylmethyl)-1H-pyrazol-3-yl)-[1,1′-biphenyl]-4-yl)amino)-N-methylethane-1-sulfonamide]	< 1 µM
CNS(=O)(=O)CCNc1ccc(-c2cc(F)cc(F)c2)cc1-c1ccn(Cc2cccnc2)n1 [compound 101, 2-((3′,5′-difluoro-3-(1-(pyridin-3-ylmethyl)-1H-pyrazol-3-yl)-[1,1′-biphenyl]-4-yl)amino)-N-methylethane-1-sulfonamide]	< 1 µM
CNS(=O)(=O)CCNc1ccc(-c2ccc(C(F)(F)F)cc2)cc1-c1ccn(Cc2cccc(F)c2)n1 [compound 103, 2-((3-(1-(3-fluorobenzyl)-1H-pyrazol-3-yl)-4′-(trifluoromethyl)-[1,1′-biphenyl]-4-yl)amino)-N-methylethane-1-sulfonamide]	< 1 µM
CNS(=O)(=O)CCNc1ccc(-c2ccccc2)cc1-c1ccn(Cc2cccc(C#N)c2)n1 [compound 104, 2-((3-(1-(3-cyanobenzyl)-1H-pyrazol-3-yl)-[1,1′-biphenyl]-4-yl)amino)-N-methylethane-1-sulfonamide]	< 1 µM
CNS(=O)(=O)CCNc1ccc(-c2ccc(C(F)(F)F)cc2)cc1-c1ccn(CCOC)n1 [compound 105, 2-((3-(1-(2-methoxyethyl)-1H-pyrazol-3-yl)-4′-(trifluoromethyl)-[1,1′-biphenyl]-4-yl)amino)-N-methylethane-1-sulfonamide]	< 1 µM
